Measurements reported in PubChem BioAssay (NCI).
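Test compounds were applied to cells in 96-well plates for 48 hours at 5 doses. GI50 = concentration required for 50% inhibition of growth. TGI: concentration producing complete growth inhibition.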

Legend:
Assay in all cases: NCI anticancer screen, dose series, 48 h
MOLT-4 leukemia = test system: MOLT-4 leukemia
NCI-H460 lung = test system: NCI-H460 lung
SK-MEL-2 melanoma = test system: SK-MEL-2 melanoma
ACHN renal = test system: ACHN renal
SK-MEL-5 melanoma = test system: SK-MEL-5 melanoma
OVCAR-5 ovarian = test system: OVCAR-5 ovarian
SK-MEL-28 melanoma = test system: SK-MEL-28 melanoma
HCT-116 colon = test system: HCT-116 colon
SF-268 CNS = test system: SF-268 CNS
MDA-MB-231 breast = test system: MDA-MB-231 breast

Row | Structure (SMILES) | TGI (MOLT-4 leukemia) | TGI (NCI-H460 lung) | TGI (SK-MEL-2 melanoma) | TGI (ACHN renal) | TGI (SK-MEL-5 melanoma) | TGI (OVCAR-5 ovarian) | TGI (SK-MEL-28 melanoma) | TGI (HCT-116 colon) | TGI (SF-268 CNS) | GI50 (SF-268 CNS) | GI50 (NCI-H460 lung) | GI50 (SK-MEL-2 melanoma) | GI50 (ACHN renal) | GI50 (SK-MEL-5 melanoma) | GI50 (OVCAR-5 ovarian) | GI50 (SK-MEL-28 melanoma) | GI50 (MDA-MB-231 breast) | TGI (MDA-MB-231 breast) | GI50 (HCT-116 colon) | GI50 (MOLT-4 leukemia)
1 | COc1ccc(C)cc1C1CCC(=O)O1 (stereo not drawn) | > 100 µM | > 100 µM | > 100 µM | > 100 µM | > 100 µM | > 100 µM | > 100 µM | > 100 µM | – | – | – | – | – | – | – | – | – | – | – | –
2 | CCc1cc(Cc2ccc(C)c(NC(=O)C(=O)C3C(=O)NC(=O)NC3=O)c2CC)cc(C)c1NC(=O)C(=O)C1C(=O)NC(=O)NC1=O | > 100 µM | > 100 µM | > 100 µM | > 100 µM | > 100 µM | > 100 µM | > 100 µM | > 100 µM | > 100 µM | – | – | – | – | – | – | – | – | – | – | –
3 | O=C1CCC(=O)c2sccc2N1 | > 100 µM | > 100 µM | > 100 µM | > 100 µM | > 100 µM | > 100 µM | > 100 µM | > 100 µM | > 100 µM | – | – | – | – | – | – | – | – | – | – | –
4 | CC(C)(C)Sc1nnc(SC(C)(C)C)c2c(=O)[nH]nc(SC(C)(C)C)c12 | 15.7 µM | 19.5 µM | – | – | 17.2 µM | 16.9 µM | – | 15.9 µM | 21.2 µM | – | – | – | – | – | – | – | – | – | – | –
5 | CC(=O)Nc1ccc(-c2nnc(SCC(=O)Nc3ccc(Cl)cc3)o2)cc1 | 32.8 µM | 36.8 µM | 49 µM | 28.5 µM | 19.7 µM | 31.6 µM | 27.2 µM | 20.2 µM | 20.1 µM | – | – | – | – | – | – | – | – | – | – | –
6 | CCCCCCCCCCSC(=N)N | – | 4.68 µM | 3.27 µM | 9.33 µM | 4.71 µM | 23.5 µM | 14.1 µM | 10.1 µM | 17 µM | 4.2 µM | 2.02 µM | 1.68 µM | 2.82 µM | 2.12 µM | 9.84 µM | 3.67 µM | 2.51 µM | 9.15 µM | 2.96 µM | –
7 | COc1cc2c(cc1OCCCOc1ccc(-c3nc4ccc(N5CCN(C)CC5)cc4[nH]3)cc1)N=C[C@@H]1CCCN1C2=O | < 0.01 µM | < 0.0505 µM | < 0.01 µM | – | < 0.01 µM | – | 54.5 µM | > 37 µM | – | < 0.01 µM | < 0.01 µM | < 0.01 µM | – | < 0.01 µM | < 0.01 µM | < 0.01 µM | < 0.01 µM | < 0.01 µM | < 0.01 µM | < 0.01 µM
8 | N#C/C(=C\c1ccc2[nH]ccc2c1)C(=O)c1ccc(O)c(O)c1 | > 100 µM | > 100 µM | > 100 µM | > 100 µM | > 100 µM | > 100 µM | > 100 µM | > 100 µM | > 100 µM | – | – | – | – | – | – | – | – | – | – | –
9 | CC(C)N1C(C)[C@@H](c2ccccc2)O[P@]1(=O)CC1=CCCCC1 (stereo partly drawn) | > 100 µM | > 100 µM | > 100 µM | > 100 µM | > 100 µM | > 100 µM | > 100 µM | > 100 µM | > 100 µM | – | – | – | – | – | – | – | – | – | – | –
10 | S=c1c2ccccc2c(=S)n2n1CC=CC2 | > 100 µM | – | > 100 µM | > 100 µM | > 100 µM | > 100 µM | > 100 µM | > 100 µM | > 100 µM | – | – | – | – | – | – | – | – | – | – | –
11 | COC(=O)C(=O)C(C(=O)C(=O)Nc1cc(Cl)c(Cl)cc1Cl)c1nc2ccc([N+](=O)[O-])cc2[nH]c1=O (stereo not drawn) | > 100 µM | – | > 100 µM | > 100 µM | > 100 µM | > 100 µM | > 100 µM | > 100 µM | > 100 µM | – | – | – | – | – | – | – | – | – | – | –
12 | CNC(c1ccncc1)C(NC)c1ccncc1 (stereo not drawn) | > 100 µM | – | > 100 µM | > 100 µM | > 100 µM | > 100 µM | > 100 µM | > 100 µM | > 100 µM | – | – | – | – | – | – | – | – | > 100 µM | – | –
13 | O=c1c2ccccc2nc(-c2ccccc2)n1NC(=S)Nc1cccc(Cl)c1 | > 100 µM | > 100 µM | > 100 µM | > 100 µM | > 100 µM | > 100 µM | > 100 µM | > 100 µM | > 100 µM | – | – | – | – | – | – | – | – | – | – | –
14 | CN(C(=O)CNC(=O)/C=C/c1cccc(Cl)c1)C1CCS(=O)(=O)CC1 | > 100 µM | > 100 µM | > 100 µM | > 100 µM | – | > 100 µM | > 100 µM | > 100 µM | > 100 µM | 65.1 µM | 13.9 µM | 15.6 µM | 46.4 µM | – | 8.5 µM | 59.3 µM | 0.525 µM | > 100 µM | 1.52 µM | 2.12 µM
15 | C/C(CC(=O)Nc1cccc([N+](=O)[O-])c1)=N\NC(=O)CC#N | > 100 µM | – | > 100 µM | – | > 100 µM | > 100 µM | > 100 µM | > 100 µM | > 100 µM | – | – | – | – | – | – | – | – | – | – | –
16 | O=CCCCC(Sc1ccccc1)Sc1ccccc1 | 38.9 µM | – | 42.7 µM | 38.4 µM | 30.8 µM | – | 32 µM | 28.4 µM | 43.3 µM | – | – | – | – | – | – | – | – | – | – | –
17 | C#CCOCn1cnc2ncnc(N)c21 | > 100 µM | > 100 µM | > 100 µM | > 100 µM | > 100 µM | > 100 µM | > 100 µM | > 100 µM | > 100 µM | – | – | – | – | – | – | – | – | – | – | –
18 | COc1ccc2c([nH]c3c(O)c(-c4c(C)cc5c([nH]c6c(CC=C(C)C)c(OC)ccc65)c4O)c(C)cc32)c1CC=C(C)C | > 100 µM | > 100 µM | > 100 µM | > 100 µM | > 100 µM | > 100 µM | > 100 µM | > 100 µM | > 100 µM | – | – | – | – | – | – | – | – | – | – | –
19 | CCOC(=O)CC(NC(=O)c1ccc(N=NN(C)C)cc1)C(=O)OCC (stereo not drawn) | > 100 µM | > 100 µM | > 100 µM | > 100 µM | > 100 µM | > 100 µM | > 100 µM | > 100 µM | > 100 µM | – | – | – | – | – | – | – | – | – | – | –
20 | CC(=O)[C-](C(C)=O)c1ccccc1.CC(=O)[C-](C(C)=O)c1ccccc1.CC(=O)[C-](C(C)=O)c1ccccc1.[Cl-].[Zr+4] | > 100 µM | > 100 µM | > 100 µM | – | > 100 µM | > 100 µM | – | > 100 µM | > 100 µM | 61.7 µM | > 100 µM | > 100 µM | – | > 100 µM | > 100 µM | – | – | – | > 100 µM | > 100 µM
21 | CC(=O)c1c2c(cc3c1CC1(C3)Cc3cc4c(c(C(=O)O)c3C1)CCC4)CCC2 (stereo not drawn) | 71.3 µM | > 100 µM | – | > 100 µM | > 100 µM | > 100 µM | > 100 µM | 67.8 µM | > 100 µM | – | – | – | – | – | – | – | – | – | – | –
